Experimental data published in patent US20050245399A1, “Pyrazole derivatives as herbicidal compositions containing them” (ISHIHARA SANGYO KAISHA, LTD., priority 2004, published 2005).

Tests used:
Assay type in all cases: in vivo
[1] = system: wheat (Triticum aestivum L.): TRZAX; test: Test Example 1 pre-emergence herbicidal activity, TRZAX; conditions: visually observed 20th to 23rd day after application
From the text: (§1) Upland field soil was put into a 1/170,000 ha pot, and seeds of various plants {1. barnyardgrass (Echinochloa crus-galli L.): ECHCG, 2. crabgrass (Digitaria sanguinalis L.): DIGSA, 3. green foxtail (Setaria viridis L.): SETVI, 4. redroot pigweed (Amaranthus retroflexus L.): AMARE, 5. prickly sida (Sida spinosa L.): SEDSP, 6. velvetleaf (Abutilon theophrasti): ABUTH, 7. common cocklebur (Xanthium strumarium L.): XANST, 8. rice (Oryza sativa L.): ORYSA, 9. wheat (Triticum aestivum L.): TRZAX, 10. corn (Zea mays L.): ZEAMX, 11. soybean (Glycine max Merr.): GLXMA} were sown. Then, one day after the sowing, a wettable powder or emulsifiable concentrate having the compound of the present invention formulated in accordance with a usual formulation method, was weighed so that the active ingredient would be a predetermined amount and diluted with water in an amount of 500 L/ha. The herbicide adjusted was applied by a small size sprayer for preemergence treatment. On the 20th to 23rd day after the application of the herbicide, the growth of the respective plants was visually observed, and the herbicidal effects were evaluated by growth controlling degrees (%) ranging from 0 (equivalent to the untreated control) to 100 (complete kill), whereby the results shown in Table 4, were obtained. Compound Nos. in Table 4 correspond to Compound Nos. in Table 1 and 2 given hereinbefore.

[2] = system: crabgrass (Digitaria sanguinalis L.): DIGSA; test: Test Example 1 pre-emergence herbicidal activity, DIGSA; conditions: visually observed 20th to 23rd day after application
From the text: as §1

[3] = system: barnyardgrass (Echinochloa crus-galli L.): ECHCG; test: Test Example 1 pre-emergence herbicidal activity, ECHCG; conditions: visually observed 20th to 23rd day after application
From the text: as §1

[4] = system: corn (Zea mays L.): ZEAMX; test: Test Example 1 pre-emergence herbicidal activity, ZEAMX; conditions: visually observed 20th to 23rd day after application
From the text: as §1

[5] = system: green foxtail (Setaria viridis L.): SETVI; test: Test Example 1 pre-emergence herbicidal activity, SETVI; conditions: visually observed 20th to 23rd day after application
From the text: as §1

[6] = system: rice (Oryza sativa L.): ORYSA; test: Test Example 1 pre-emergence herbicidal activity, ORYSA; conditions: visually observed 20th to 23rd day after application
From the text: as §1

[7] = system: prickly sida (Sida spinosa L.): SEDSP; test: Test Example 1 pre-emergence herbicidal activity, SIDSP; conditions: visually observed 20th to 23rd day after application
From the text: as §1

[8] = system: velvetleaf (Abutilon theophrasti): ABUTH; test: Test Example 1 pre-emergence herbicidal activity, ABUTH; conditions: visually observed 20th to 23rd day after application
From the text: as §1

[9] = system: redroot pigweed (Amaranthus retroflexus L.): AMARE; test: Test Example 1 pre-emergence herbicidal activity, AMARE; conditions: visually observed 20th to 23rd day after application
From the text: as §1

[10] = system: soybean (Glycine max Merr.): GLXMA; test: Test Example 1 pre-emergence herbicidal activity, GLXMA; conditions: visually observed 20th to 23rd day after application
From the text: as §1

[11] = system: barnyardgrass (Echinochloa crus-galli L.), ECHCG; test: Test Example 2 post-emergence (foliage treatment) herbicidal activity, ECHCG; conditions: 63 g a.i./ha
From the text: (§2) Upland field soil was put into a 1/170,000 ha pot, and seeds of various plants were sown. Then, when the plants reached predetermined leaf stages {1. barnyardgrass (Echinochloa crus-galli L.), ECHCG: 1.1-2.1 leaf stage, 2. crabgrass (Digitaria sanguinalis L.), DIGSA: 1.0-2.0 leaf stage, 3. green foxtail (Setaria viridis L.), SETVI: 1.0-2.2 leaf stage, 4. redroot pigweed (Amaranthus retroflexus L.), AMARE: 0.1-1.5 leaf stage, 5. prickly sida (Sida spinosa L.), SIDSP: 0.1-0.6 leaf stage, 6. velvetleaf (Abutilon theophrasti), ABUTH: 0.1-0.6 leaf stage, 7. common cocklebur (Xanthium strumarium L.), XANST: 0.1 leaf stage, 8. rice (Oryza sativa L.), ORYSA; 1.0-2 leaf stage, 9. wheat (Triticum aestivum L.), TRZAX: 2.3-3.5 leaf stage, 10. corn (Zea mays L.), ZEAMXN 2.1-2.6 leaf stage, 11. soybean (Glycine max Merr.), GLXMA: primary leaf stage}, a wettable powder or emulsifiable concentrate having the compound of the present invention formulated in accordance with a usual formulation method, was weighed so that the active ingredient would be a predetermined amount, and diluted with water in an amount of 500 L/ha. To the diluted solution, 0.1% (v/v) of an agricultural spreader was added. The herbicide adjusted was applied by a small size sprayer for foliage treatment. On the 20th to 23rd day after the application of the herbicide, the growth of the respective plants was visually observed, and the herbicidal effects were evaluated by growth controlling degrees (%) ranging from 0 (equivalent to the untreated control) to 100 (complete kill), whereby the results shown in Table 5, were obtained. Compound Nos. in Table 5 correspond to Compound Nos. in Table 1 and 2 given hereinbefore.

[12] = system: crabgrass (Digitaria sanguinalis L.), DIGSA; test: Test Example 2 post-emergence (foliage treatment) herbicidal activity, DIGSA; conditions: 63 g a.i./ha
From the text: as §2

[13] = system: velvetleaf (Abutilon theophrasti), ABUTH; test: Test Example 2 post-emergence (foliage treatment) herbicidal activity, ABUTH; conditions: 63 g a.i./ha
From the text: as §2

[14] = system: green foxtail (Setaria viridis L.), SETVI; test: Test Example 2 post-emergence (foliage treatment) herbicidal activity, SETVI; conditions: 63 g a.i./ha
From the text: as §2

[15] = system: rice (Oryza sativa L.), ORYSA; test: Test Example 2 post-emergence (foliage treatment) herbicidal activity, ORYSA; conditions: 63 g a.i./ha
From the text: as §2

[16] = system: corn (Zea mays L.), ZEAMX; test: Test Example 2 post-emergence (foliage treatment) herbicidal activity, ZEAMX; conditions: 63 g a.i./ha
From the text: as §2

[17] = system: wheat (Triticum aestivum L.), TRZAX; test: Test Example 2 post-emergence (foliage treatment) herbicidal activity, TRZAX; conditions: 63 g a.i./ha
From the text: as §2

[18] = system: soybean (Glycine max Merr.), GLXMA; test: Test Example 2 post-emergence (foliage treatment) herbicidal activity, GLXMA; conditions: 63 g a.i./ha
From the text: as §2

[19] = system: prickly sida (Sida spinosa L.), SIDSP; test: Test Example 2 post-emergence (foliage treatment) herbicidal activity, SIDSP; conditions: 63 g a.i./ha
From the text: as §2

SMILES	Pre-emergence Herbicidal Activity TRZAX (growth controlling degree) ([1]; Rate 63 g a.i./ha)	Pre-emergence Herbicidal Activity DIGSP (growth controlling degree) ([2]; Rate 63 g a.i./ha)	Pre-emergence Herbicidal Activity ECHCG (growth controlling degree) ([3]; Rate 63 g a.i./ha)	Pre-emergence Herbicidal Activity ZEAMX (growth controlling degree) ([4]; Rate 63 g a.i./ha)	Pre-emergence Herbicidal Activity SETVI (growth controlling degree) ([5]; Rate 63 g a.i./ha)	Pre-emergence Herbicidal Activity ORYSA (growth controlling degree) ([6]; Rate 63 g a.i./ha)	Pre-emergence Herbicidal Activity SIDSP (growth controlling degree) ([7]; Rate 63 g a.i./ha)	Pre-emergence Herbicidal Activity ABUTH (growth controlling degree) ([8]; Rate 63 g a.i./ha)	Pre-emergence Herbicidal Activity AMARE (growth controlling degree) ([9]; Rate 63 g a.i./ha)	Pre-emergence Herbicidal Activity GLXMA (growth controlling degree) ([10]; Rate 63 g a.i./ha)	also measured
COc1c(Cl)cc(F)c(-c2nn(C)c(OC(F)F)c2Cl)c1NC(=O)c1ccc2ccccc2c1 [Compound 1-271]											Pre-emergence Herbicidal Activity TRZAX (growth controlling degree) ([1]; Rate 125 g a.i./ha): 10%; Pre-emergence Herbicidal Activity DIGSP (growth controlling degree) ([2]; Rate 125 g a.i./ha): 100%; Pre-emergence Herbicidal Activity ECHCG (growth controlling degree) ([3]; Rate 125 g a.i./ha): 70%; Pre-emergence Herbicidal Activity ZEAMX (growth controlling degree) ([4]; Rate 125 g a.i./ha): 20%; Pre-emergence Herbicidal Activity SETVI (growth controlling degree) ([5]; Rate 125 g a.i./ha): 90%; Pre-emergence Herbicidal Activity ORYSA (growth controlling degree) ([6]; Rate 125 g a.i./ha): 60%; Pre-emergence Herbicidal Activity SIDSP (growth controlling degree) ([7]; Rate 125 g a.i./ha): 100%; Pre-emergence Herbicidal Activity ABUTH (growth controlling degree) ([8]; Rate 125 g a.i./ha): 40%; Pre-emergence Herbicidal Activity AMARE (growth controlling degree) ([9]; Rate 125 g a.i./ha): 100%; Pre-emergence Herbicidal Activity GLXMA (growth controlling degree) ([10]; Rate 125 g a.i./ha): 20%
COc1c(Cl)cc(F)c(-c2nn(C)c(OC(F)F)c2Cl)c1NC(=O)CCc1ccc(F)cc1 [Compound 1-267]	20%	100%	70%	0%	95%	30%	80%	100%	100%	0%	
COc1c(Cl)cc(F)c(-c2nn(C)c(OC(F)F)c2Cl)c1NCCOc1ccccc1 [Compound 1-77]	0%	0%	0%	0%	10%	0%	0%	0%		0%	growth controlling degree, ECHCO [11]: 70%; growth controlling degree, DIGSP [12]: 60%; growth controlling degree, ABUTH [13]: 100%; growth controlling degree, SETVI [14]: 95%; growth controlling degree, ORYSA [15]: 40%; growth controlling degree, ZEAMX [16]: 60%; growth controlling degree, TRZAX [17]: 30%; growth controlling degree, GLXMA [18]: 60%; growth controlling degree, SIDSP [19]: 100%
COc1c(Cl)cc(F)c(-c2nn(C)c(OC(F)F)c2Cl)c1NC(=O)CCc1ccccc1F [Compound 1-269]	40%	100%	80%	10%	100%	40%	100%	80%	100%	0%	
